Take `O=C1OC(=O)C(Br)=C1Br` [compound 1, 2,3-dibromo-maleic anhydride]: the melting point (as a rule, the temperature of the solid-liquid transition) was in the range of 107 to 110 °C.

(Values after patent US10010623B2, “Lysosome-cleavable linker” (UCL Business PLC, priority 2012, dated 2018).)
